This note sets out measurements from BindingDB's records for doi:10.1021/jm000022w (Cor Therapeutics, 2000).

Starred links: 1 amine or outer side, 2 acyl side, 3 side chain; linkers in the order of their positions; H or OH if unused. Positions of bridges follow the written chain, without caps; N, C: chain ends. Non-standard residues stand in square brackets, D forms with d. Residues, ends and D or L forms follow the SMILES beside them. ξ: configuration not given here. Cys(O)(CH2CO) = O=C([C@H](C[S+]([O-])CC(=O)[*:3])N[*:1])[*:2]; NMeR = CN[C@@H](CCCNC(=N)N)C(=O)O; hArg = N=C(N)NCCCC[C@H](N)C(=O)O; 3Amb = NCc1cccc(C(=O)O)c1; ξR = N=C(N)NCCCC(N)C(=O)O; dAbu = CC[C@@H](N)C(=O)O; Mpa = O=C(O)CCS

Assay [1] can be described thus: In vitro inhibition of gel filtered platelet aggregation induced by ADP.
The nature of assay [2]: Inhibition of […] and platelet aggregation in human platelet rich plasma.
Assay [3] in a line: Inhibition of platelet aggregation.
The nature of assay [4]: Inhibition of human platelet aggregation.
Assay [5] can be described thus: Inhibition of human platelet aggregation. The source holds these as a separate data set.
A short description of assay [6]: Inhibition of ADP-induced platelet aggregation in human platelet rich plasma.
A short description of assay [7]: Inhibition of human platelet aggregation collected with sodium citrate as anticoagulant.
Assay [8] is described as follows: Inhibition of platelet aggregation. This is another data set of the same source.
The nature of assay [9]: Inhibition of human platelet aggregation. This is another data set of the same source.
Assay [10] is described as follows: Inhibition of platelet aggregation. This is another data set of the same source.
A short description of assay [11]: Inhibition of human gel filtered platelet aggregation induced by ADP.

One may read the IC50 as the concentration needed to halve the response being measured. A high value points to weaker potency in that assay.

In the case of `N=C(c1ccc(C(=O)Nc2ccc3c(c2)C[C@@H](CC(=O)O)CO3)cc1)N1CCOCC1` [{(S)-6-[4-(Imino-morpholin-4-yl-methyl)-benzoylamino]-chroman-3-yl}-acetic acid], the IC50 in [1] was determined as 35 nM.
Regarding `C[C@@H](COc1ccc(N2CCN(c3ccncc3)CC2)cc1)CC(=O)O` [3-Methyl-4-[4-(4-pyridin-4-yl-piperazin-1-yl)-phenoxy]-butyric acid (ZD 2486)], the IC50 in assay [2] is 50 nM.
On to `Cc1noc(C)c1S(=O)(=O)N[C@@H](CNC(=O)C1CCC2(CC1)CCN(c1ccncc1)CC2)C(=O)O` [2-(3,5-Dimethyl-isoxazole-4-sulfonylamino)-3-[(3-pyridin-4-yl-3-aza-spiro[5.5]undecane-9-carbonyl)-amino]-propionic acid], for which, in [1], the IC50 is 44 nM.
`N=C(N)c1ccc(C(=O)Nc2cccc(C(=O)NCCC(=O)O)c2)cc1` yielded an IC50 in assay [3] of 200 nM. This lies in the sub-micromolar range.
As for `CC(C)CC(=O)N[C@@H](CCCCNC(=O)c1ccc(C(=N)N)cc1)CC(=O)O` [7-(4-Carbamimidoyl-benzoylamino)-3-(3-methyl-butyrylamino)-heptanoic acid (GPI 562)], the half-inhibitory concentration (IC50) in assay [4] amounted to 15 nM.
Regarding `[H]/N=C(/N)c1ccc(C(=O)N[C@@H](Cc2ccc(O)cc2)C(=O)N2CCC(OCC(=O)O)CC2)cc1`, 30 nM corresponded to half-maximal inhibition in assay [3] (IC50).
In turn, `CCOC(=O)CN1CCN(C[C@@H]2CN(c3ccc(C(N)=NC(=O)OC)cc3)C(=O)O2)CC1` [Gantofiban] showed a 50% inhibitory concentration (IC50) in assay [5] of 8 nM.
Turning to `CN(C(=O)c1ccc2c(c1)NC(CC(=O)O)C(=O)N(CCc1ccccc1)C2)c1ccc(C(=N)N)cc1` (stereo not given) [{8-[(4-Carbamimidoyl-phenyl)-methyl-carbamoyl]-3-oxo-4-phenethyl-2,3,4,5-tetrahydro-1H-benzo[e][1,4]diazepin-2-yl}-acetic acid(SB-208651)], in assay [6], the IC50 amounted to 65 nM. That is a double-digit nanomolar value.
In turn, `[H]/N=C(/N)c1ccc(N2CCN(C3CCN(CC(=O)O)CC3)CC2)cc1` [{4-[4-(4-Carbamimidoyl-phenyl)-piperazin-1-yl]-piperidin-1-yl}-acetic acid (GR 144053)] had an IC50 in assay [2] of 59 nM.
For the compound `C#C[C@H](CC(=O)O)NC(=O)CN1CCc2ccc(N3CCNCC3)cc2C1=O` [L-767679], the IC50 in assay [1] turned out to be 12 nM.
The same measure, in the same setting: then `[H]/N=C(/N)c1ccc(C2=NO[C@@H](CC(=O)NC[C@H](NC(=O)OCCCC)C(=O)O)C2)cc1`, with 60 nM.
On the same count and under the same terms, then `Cc1noc(C)c1S(=O)(=O)N[C@@H](CCC(=O)N1CCC2(CC1)CCN(c1ccncc1)CC2)C(=O)O` [2-(3,5-Dimethyl-isoxazole-4-sulfonylamino)-5-oxo-5-(9-pyridin-4-yl-3,9-diaza-spiro[5.5]undec-3-yl)-pentanoic acid], with 21 nM.
The compound `CCCCOC(=O)N[C@@H](CNC(=O)C[C@H]1CC(c2ccc(C(=N)N)cc2)=NO1)C(=O)OC` [2-Butoxycarbonylamino-3-{2-[3-(4-carbamimidoyl-phenyl)-4,5-dihydro-isoxazol-5-yl]-acetylamino}-propionic acid methyl ester(DMP 754(roxifiban))] yielded an IC50 in assay [5] of 60 nM. This lies in the double-digit nanomolar range.
On to `N=C(N)NCCCC[C@@H]1NC(=O)CCSSC[C@@H](C(N)=O)NC(=O)[C@@H]2CCCN2C(=O)[C@H](Cc2c[nH]c3ccccc23)NC(=O)[C@H](CC(=O)O)NC(=O)CNC1=O` ([Mpa][hArg]GDWPC-NH2; disulfide 1-7), for which half-maximal inhibition in [7] (IC50) was put at 140 nM.
Consider `Cc1c(C(=O)NCCC(=O)O)s/c(=N\C(=O)c2ccc(C(=N)N3CCC4(CC3)OCCO4)cc2)n1C` [3-[(2-{4-[(1,4-Dioxa-8-aza-spiro[4.5]dec-8-yl)-imino-methyl]-benzoylimino}-3,4-dimethyl-2,3-dihydro-thiazole-5-carbonyl)-amino]-propionic acid (PSA0613)], for which it took 22 nM to reach half-maximal inhibition in assay [8] (IC50).
`N=C(N)NCCC[C@@H]1NC(=O)[C@@H](Cc2ccc(O)cc2)NC(=O)C[S+]([O-])C[C@@H](C(=O)O)NC(=O)[C@H](CC(=O)O)NC(=O)CNC1=O` (stereo not given in full) [6-Carboxymethyl-12-(3-guanidino-propyl)-15-(4-hydroxy-benzyl)-1,5,8,11,14,17-hexaoxo-1lambda*4*-thia-4,7,10,13,16-pentaaza-cyclooctadecane-3-carboxylic acid (G4120)] ([dY]RGD[Cys(O)(CH2CO)]-OH; lactam N-5): in [3], the IC50 stood at 150 nM.
Turning to `CCOC(=O)CCN(c1ncc(-c2ccc(C(N)=NC(=O)OCC)cc2)s1)C1CCN(CC(=O)OCC)CC1` [3-[{5-[4-(Ethoxycarbonylamino-imino-methyl)-phenyl]-thiazol-2-yl}-(1-ethoxycarbonylmethyl-piperidin-4-yl)-amino]-propionic acid ethyl ester (SR121787)], the concentration for half-maximal inhibition (IC50) in assay [8] is greater than 90 nM.
In turn, `CC[C@H]1NC(=O)c2cccc(c2)CNC(=O)[C@H](CC(=O)O)NC(=O)CNC(=O)[C@H](CCCN=C(N)N)N(C)C1=O` [DMP-728] (cyclo([NMeR]GD[3Amb][dAbu])) yielded an IC50 in assay [9] of 46 nM.
In the case of `N=C(N)c1ccc(C(=O)Nc2ccc3c(c2)CCC(CC(=O)O)C3=O)cc1` (stereo not given) [[6-(4-Carbamimidoyl-benzoylamino)-1-oxo-1,2,3,4-tetrahydro-naphthalen-2-yl]-acetic acid], the IC50 in assay [1] was determined as 60 nM.
Regarding `N=C(N)c1ccc(N2CCN(c3ccc(OCC(=O)O)cc3)CC2)cc1` [{4-[4-(4-Carbamimidoyl-phenyl)-piperazin-1-yl]-phenoxy}-acetic acid], in [2], half-maximal inhibition (IC50) was put at 20 nM.
With `O=C(NC[C@H](NS(=O)(=O)c1ccccc1)C(=O)O)c1cc2c(s1)CCN(CCC1CCNCC1)C2=O` [(S)-2-Benzenesulfonylamino-3-{[4-oxo-5-(2-piperidin-4-yl-ethyl)-4,5,6,7-tetrahydro-thieno[3,2-c]pyridine-2-carbonyl]-amino}-propionic acid], the IC50 in [1] came to 8 nM.
With `CC(=O)NC(CCCNC(=N)N)C(=O)NCC(=O)N[C@@H](CC(=O)O)C(=O)N[C@H](C(N)=O)C(C)C` (stereo not given in full) [3-[2-(2-Acetylamino-5-guanidino-pentanoylamino)-acetylamino]-N-(1-carbamoyl-2-methyl-propyl)-succinamic acid] (Ac-[ξR]GDV-NH2), 32000 nM corresponded to half-maximal inhibition in assay [10] (IC50). In other words, the double-digit micromolar range.
Consider `CCCCS(=O)(=O)N[C@@H](CNC(=O)c1cc2n(n1)CCN(CCC1CCNCC1)C2=O)C(=O)O` [(S)-2-(Butane-1-sulfonylamino)-3-{[4-oxo-5-(2-piperidin-4-yl-ethyl)-4,5,6,7-tetrahydro-pyrazolo[1,5-a]pyrazine-2-carbonyl]-amino}-propionic acid], for which the IC50 in [1] worked out at 9 nM.
`CC(C)[C@H](NC(=O)[C@H](CC(=O)O)NC(=O)CNC(=O)Cc1ccc(C(=N)N)cc1)C(=O)O` yielded a half-maximal inhibitory concentration (IC50) in [3] of 300 nM.
Compound `CCCCS(=O)(=O)NC(CC#Cc1ccc2[nH]c(=O)n(CCC3CCNCC3)c(=O)c2c1)C(=O)O` (stereo not given) [2-(Butane-1-sulfonylamino)-5-[2,4-dioxo-3-(2-piperidin-4-yl-ethyl)-1,2,3,4-tetrahydro-quinazolin-6-yl]-pent-4-ynoic acid] came in with an IC50 in assay [1] of 37 nM. This lies in the double-digit nanomolar range.
`CN(C(=O)c1ccc2c(c1)CN(CCc1ccccc1)C(=O)C(CC(=O)O)N2)c1ccc(C(=N)N)cc1` (stereo not given) [{7-[(4-Carbamimidoyl-phenyl)-methyl-carbamoyl]-3-oxo-4-phenethyl-2,3,4,5-tetrahydro-1H-benzo[e][1,4]diazepin-2-yl}-acetic acid] showed an IC50 in [6] of 160 nM.
With `Cc1ccc(S(=O)(=O)N[C@@H](CCC(=O)N2CCC3(CC2)C(=O)N(c2ccc(C(=N)N)cc2)C(=O)N3C)C(=O)O)cc1` [5-[3-(4-Carbamimidoyl-phenyl)-1-methyl-2,4-dioxo-1,3,8-triaza-spiro[4.5]dec-8-yl]-5-oxo-2-(toluene-4-sulfonylamino)-pentanoic acid], the IC50 in [1] was 59 nM.
The same measure, in the same setting: then `CCCCS(=O)(=O)NC(CC#Cc1ccc2nc(C)n(CCC3CCNCC3)c(=O)c2c1)C(=O)O` (stereo not given) [2-(Butane-1-sulfonylamino)-5-[2-methyl-4-oxo-3-(2-piperidin-4-yl-ethyl)-3,4-dihydro-quinazolin-6-yl]-pent-4-ynoic acid], with 43 nM; and `O=C(NC[C@H](NS(=O)(=O)c1ccccc1)C(=O)O)c1cc2cc(OCC3CCNCC3)ccc2[nH]1` [2-Benzenesulfonylamino-3-{[5-(piperidin-4-ylmethoxy)-1H-indole-2-carbonyl]-amino}-propionic acid(L-756568)], with 13 nM; and `Cc1ccc(S(=O)(=O)N[C@@H](CNC(=O)c2ccc3oc(-c4ccc(C(=N)N)cc4)nc3c2)C(=O)O)cc1` [(S)-3-{[2-(4-Carbamimidoyl-phenyl)-benzooxazole-5-carbonyl]-amino}-2-(toluene-4-sulfonylamino)-propionic acid], with 10 nM.
With `COc1ccc(C[C@H](NC(=O)[C@H](CC(=O)O)NC(=O)CNC(=O)[C@@H](N)CCCNC(=N)N)C(N)=O)cc1` [SC-46749] (H-RGDY(Me)-NH2), in [10], the IC50 was determined as 32000 nM.
Compound `C[C@@]1(c2ccc(C(=N)N)cc2)NC(=O)N(CC(=O)NC(CC(=O)O)c2ccccc2)C1=O` (stereo not given in full) [3-{2-[4-(4-Carbamimidoyl-phenyl)-4-methyl-2,5-dioxo-imidazolidin-1-yl]-acetylamino}-3-phenyl-propionic acid(S1197)] came in with a 50% inhibitory concentration (IC50) in assay [11] of 20 nM.
Compound `N=C(N)c1ccc(C(=O)Nc2ccc3c(c2)CCC(CC(=O)O)O3)cc1` (stereo not given) [[6-(4-Carbamimidoyl-benzoylamino)-chroman-2-yl]-acetic acid] gave a half-inhibitory concentration (IC50) in assay [1] of 190 nM.
In [3], `CC(C)[C@H](NC(=O)[C@H](CC(=O)O)NC(=O)CCNC(=O)c1ccc(C(=N)N)cc1)C(=O)O` [2-{2-[3-(4-Carbamimidoyl-benzoylamino)-propionylamino]-3-carboxy-propionylamino}-3-methyl-butyric acid (Ro 43-5054)] registered an IC50 of 30 nM.
As for `CN(CC(=O)c1ccc(OCC(=O)O)c(OCC(=O)O)c1)C(=O)c1ccc(C(=N)N)cc1` [(4-{2-[(4-Carbamimidoyl-benzoyl)-methyl-amino]-acetyl}-2-carboxymethoxy-phenoxy)-acetic acid], the half-inhibitory concentration (IC50) in assay [3] came to 70 nM.
